From PMC9099127 (Clinical and Translational Science, 2022)
Where two headings read alike, the source gives them in different places.

Columns and labels:
[1] = after a 40 mg oral dose; range associated with therapeutic response; cited from earlier work
[2] = type: in vivo, human (children 6–17 years); conditions: single oral dose 1.2 mg/kg LBW

PAN plasma AUCtot, Mean (SD) ([2]; CYP2C19 genotype *1*1 (n=30)): 10.04 (6.81) µM per mg/kg TBW | PAN plasma AUCtot, Range ([2]; CYP2C19 genotype *1*1 (n=30)): [2.68–33.75] µM per mg/kg TBW | PAN plasma AUCtot, Mean (SD) ([2]; CYP2C19 genotype *1*2 (n=10)): 18.07 (11.20) µM per mg/kg TBW | PAN plasma AUCtot, Range ([2]; CYP2C19 genotype *1*2 (n=10)): [7.36–41.31] µM per mg/kg TBW | PAN plasma AUCtot, Mean (SD) ([2]; CYP2C19 genotype *1*17 (n=16)): 7.84 (4.52) µM per mg/kg TBW | PAN plasma AUCtot, Range ([2]; CYP2C19 genotype *1*17 (n=16)): [2.26–18.59] µM per mg/kg TBW | PAN plasma AUCtot, Mean (SD) ([2]; CYP2C19 genotype *2*2 (n=1)): 226.59 (–) µM per mg/kg TBW | PAN plasma AUCtot, Mean (SD) ([2]; CYP2C19 genotype *2*17 (n=3)): 10.42 (3.40) µM per mg/kg TBW | PAN plasma AUCtot, Range ([2]; CYP2C19 genotype *2*17 (n=3)): [7.71–14.23] µM per mg/kg TBW | PAN plasma AUCtot, Mean (SD) ([2]; CYP2C19 genotype *17*17 (n=1)): 4.18 (–) µM per mg/kg TBW
Structure (SMILES): COc1ccnc(C[S+]([O-])c2nc3ccc(OC(F)F)cc3[nH]2)c1OC (centres unmarked) [PAN, pantoprazole]
typical therapeutic PAN plasma AUCtot [1]: 7 to 17 µM
